Measured values from patent US11535629B2, “Dioxoloisoquinolinone derivatives and use thereof” (HANMI PHARMACEUTICAL CO., LTD., priority 2020, dated 2022).

Tested on: KARPAS-422 cells
Assay: Cell growth inhibition test (CTG method)
Type: cell-based
Settings: Homo sapiens, KARPAS-422, 168 h, KARPAS-422 (EZH2^Y641N mutant), culturing for 7 days; read-out: Cell growth inhibitory activity (GI50, nM) KARPAS-422 (EZH2^Y641N mutant)
Experimental: The cultured cell strain was prepared at 1.8×10^4 cells/400 μL and placed in a 48-well plate.

SMILES	GI50
Cc1cc(C)c(CN2CCc3c(c(C)c4c(c3-c3cccs3)O[C@@](C)([C@H]3CC[C@H](N(C)C)CC3)O4)C2=O)c(=O)[nH]1 [Compound 33, (S)-6-((4,6-dimethyl-2-oxo-1,2-dihydropyridin-3-yl)methyl)-2-(trans-4-(dimethylamino)cyclohexyl)-2,4-dimethyl-9-(thiophen-2-yl)-7,8-dihydro-[1,3]dioxolo[4,5-g]isoquinolin-5(6H)-one]	> 1000 nM
Cc1cc(C)c(CN2CCc3c(c(C)c4c(c3-c3ccncc3)O[C@@](C)([C@H]3CC[C@H](N(C)C)CC3)O4)C2=O)c(=O)[nH]1 [Compound 35, (S)-6-((4,6-dimethyl-2-oxo-1,2-dihydropyridin-3-yl)methyl)-2-(trans-4-(dimethylamino)cyclohexyl)-2,4-dimethyl-9-(pyridin-4-yl)-7,8-dihydro-[1,3]dioxolo[4,5-g]isoquinolin-5(6H)-one]	> 1000 nM
Cc1cc(C)c(CN2CCc3c(c(C)c4c(c3-c3ccc(F)nc3)O[C@@](C)([C@H]3CC[C@H](N(C)C)CC3)O4)C2=O)c(=O)[nH]1 [Compound 37, (S)-6-((4,6-dimethyl-2-oxo-1,2-dihydropyridin-3-yl)methyl)-2-(trans-4-(dimethylamino)cyclohexyl)-9-(6-fluoropyridin-3-yl)-2,4-dimethyl-7,8-dihydro-[1,3]dioxolo[4,5-g]isoquinolin-5(6H)-on]	> 1000 nM
Cc1cc(C)c(CN2CCc3c(c(C)c4c(c3-c3cnn(C)c3)O[C@@](C)([C@H]3CC[C@H](N(C)C)CC3)O4)C2=O)c(=O)[nH]1 [Compound 39, (S)-6-((4,6-dimethyl-2-oxo-1,2-dihydropyridin-3-yl)methyl)-2-(trans-4-(dimethylamino)cyclohexyl)-2,4-dimethyl-9-(1-methyl-1H-pyrazol-4-yl)-7,8-dihydro-[1,3]dioxolo[4,5-g]isoquinolin-5(6H)-one]	> 1000 nM
Cc1cc(C)c(CN2CCc3c(c(C)c4c(c3-c3ccc(C)o3)O[C@@](C)([C@H]3CC[C@H](N(C)C)CC3)O4)C2=O)c(=O)[nH]1 [Compound 41, (S)-6-((4,6-dimethyl-2-oxo-1,2-dihydropyridin-3-yl)methyl)-2-(trans-4-(dimethylamino)cyclohexyl)-2,4-dimethyl-9-(5-methylfuran-2-yl)-7,8-dihydro-[1,3]dioxolo[4,5-g]isoquinolin-5(6H)-one]	> 1000 nM
Cc1cc(C)c(CN2CCc3c(c(C)c4c(c3-c3ccc(C)s3)O[C@@](C)([C@H]3CC[C@H](N(C)C)CC3)O4)C2=O)c(=O)[nH]1 [Compound 43, (S)-6-((4,6-dimethyl-2-oxo-1,2-dihydropyridin-3-yl)methyl)-2-(trans-4-(dimethylamino)cyclohexyl)-2,4-dimethyl-9-(5-methylthiophen-2-yl)-7,8-dihydro-[1,3]dioxolo[4,5-g]isoquinolin-5(6H)-one]	> 1000 nM
Cc1cc(C)c(CN2CCc3c(c(C)c4c(c3-c3cccnc3)O[C@@](C)([C@H]3CC[C@H](N(C)C)CC3)O4)C2=O)c(=O)[nH]1 [Compound 45, (S)-6-((4,6-dimethyl-2-oxo-1,2-dihydropyridin-3-yl)methyl)-2-(trans-4-(dimethylamino)cyclohexyl)-2,4-dimethyl-9-(pyridin-3-yl)-7,8-dihydro-[1,3]dioxolo[4,5-g]isoquinolin-5(6H)-one]	> 1000 nM
Cc1cc(C)c(CN2CCc3c(c(C)c4c(c3-c3cncnc3)O[C@@](C)([C@H]3CC[C@H](N(C)C)CC3)O4)C2=O)c(=O)[nH]1 [Compound 47, (S)-6-((4,6-dimethyl-2-oxo-1,2-dihydropyridin-3-yl)methyl)-2-(trans-4-(dimethylamino)cyclohexyl)-2,4-dimethyl-9-(pyrimidin-5-yl)-7,8-dihydro-[1,3]dioxolo[4,5-g]isoquinolin-5(6H)-one]	> 1000 nM

Results, then the compound that gave them:

GI50	SMILES
9.8 nM	Cc1cc(C)c(CN2CCc3c(C)c4c(c(Cl)c3C2=O)OC(C)(C23CCC(N(C)C)(CC2)CC3)O4)c(=O)[nH]1 (stereo not shown) [Compound 27, 4-chloro-6-((4,6-dimethyl-2-oxo-1,2-dihydropyridin-3-yl)methyl)-2-(4-(dimethylamino)bicyclo[2.2.2]octan-1-yl)-2,9-dimethyl-7,8-dihydro-[1,3]dioxolo[4,5-g]isoquinolin-5(6H)-one]
13 nM	Cc1cc(C)c(CN2CCc3c(Cl)c4c(c(Cl)c3C2=O)OC(C)(C23CCC(N(C)C)(CC2)CC3)O4)c(=O)[nH]1 (stereo not shown) [Compound 28, 4,9-dichloro-6-((4,6-dimethyl-2-oxo-1,2-dihydropyridin-3-yl)methyl)-2-(4-(dimethylamino)bicyclo[2.2.2]octan-1-yl)-2-methyl-7,8-dihydro-[1,3]dioxolo[4,5-g]isoquinolin-5(6H)-one]
36 nM	Cc1cc(C)c(CN2CCc3c(Cl)c4c(c(C)c3C2=O)OC(C23CCC(N(C)C)(CC2)CC3)O4)c(=O)[nH]1 (stereo not shown) [Compound 29, 9-chloro-6-((4,6-dimethyl-2-oxo-1,2-dihydropyridin-3-yl)methyl)-2-(4-(dimethylamino)bicyclo[2.2.2]octan-1-yl)-4-methyl-7,8-dihydro-[1,3]dioxolo[4,5-g]isoquinolin-5(6H)-one]
> 1000 nM	Cc1cc(C)c(CN2CCc3c(c(C)c4c(c3-c3ccco3)O[C@@](C)([C@H]3CC[C@H](N(C)C)CC3)O4)C2=O)c(=O)[nH]1 [Compound 31, (S)-6-((4,6-dimethyl-2-oxo-1,2-dihydropyridin-3-yl)methyl)-2-(trans-4-(dimethylamino)cyclohexyl)-9-(furan-2-yl)-2,4-dimethyl-7,8-dihydro-[1,3]dioxolo[4,5-g]isoquinolin-5(6H)-one]
5.8 nM	Cc1cc(C)c(CN2CCc3c(c(C)c4c(c3-c3ccc(F)nc3)O[C@](C)([C@H]3CC[C@H](N(C)C)CC3)O4)C2=O)c(=O)[nH]1 [Compound 36, (R)-6-((4,6-dimethyl-2-oxo-1,2-dihydropyridin-3-yl)methyl)-2-(trans-4-(dimethylamino)cyclohexyl)-9-(6-fluoropyridin-3-yl)-2,4-dimethyl-7,8-dihydro-[1,3]dioxolo[4,5-g]isoquinolin-5(6H)-one]
5.8 nM	Cc1cc(C)c(CN2CCc3c(c(C)c4c(c3-c3cnn(C)c3)O[C@](C)([C@H]3CC[C@H](N(C)C)CC3)O4)C2=O)c(=O)[nH]1 [Compound 38, (R)-6-((4,6-dimethyl-2-oxo-1,2-dihydropyridin-3-yl)methyl)-2-(trans-4-(dimethylamino)cyclohexyl)-2,4-dimethyl-9-(1-methyl-1H-pyrazol-4-yl)-7,8-dihydro-[1,3]dioxolo[4,5-g]isoquinolin-5(6H)-on]
5.7 nM	Cc1cc(C)c(CN2CCc3c(c(C)c4c(c3-c3ccc(C)s3)O[C@](C)([C@H]3CC[C@H](N(C)C)CC3)O4)C2=O)c(=O)[nH]1 [Compound 42, (R)-6-((4,6-dimethyl-2-oxo-1,2-dihydropyridin-3-yl)methyl)-2-(trans-4-(dimethylamino)cyclohexyl)-2,4-dimethyl-9-(5-methylthiophen-2-yl)-7,8-dihydro-[1,3]dioxolo[4,5-g]isoquinolin-5(6H)-one]
7 nM	Cc1cc(C)c(CN2CCc3c(c(C)c4c(c3-c3cncnc3)O[C@](C)([C@H]3CC[C@H](N(C)C)CC3)O4)C2=O)c(=O)[nH]1 [Compound 46, (R)-6-((4,6-dimethyl-2-oxo-1,2-dihydropyridin-3-yl)methyl)-2-(trans-4-(dimethylamino)cyclohexyl)-2,4-dimethyl-9-(pyrimidin-5-yl)-7,8-dihydro-[1,3]dioxolo[4,5-g]isoquinolin-5(6H)-one]
